Values after ≈ are worked out from the molar mass of the structure shown. Values joined by “and” are separate entries in the source; they are usually repeats but may differ in a detail not shown here. Equal values may be shown once.
Columns and labels:
[1] = test system: mixed S. mutans-C. albicans; experiment: Growth of C. albicans-S. mutans co-culture; format: cell-based; details: mixed S. mutans-C. albicans growth
S. aureus MRSA 24433 = experiment: Growth of MRSA 24433, cannabinoid alone and combined with antibiotic (MIC/FIC/FICI); format: cell-based; details: MRSA 24433 growth, Table 3B
[2] = test system: fluconazole resistant C. albicans strains; format: cell-based; details: each agent alone or in combination; data not shown
[3] = test system: fluconazole resistant C. albicans strain DSY551 biofilm; details: Table 2
[4] = test system: S.aureus MRSA 43300 biofilm; experiment: Biofilm formation of MRSA 43300, cannabinoid alone and combined with antibiotic (MBIC/FBIC/FBICI); format: cell-based; details: for MBIC ARAS: ARAS alone
S.aureus MRSA 43300 = experiment: Growth of MRSA 43300, cannabinoid alone and combined with antibiotic (MIC/FIC/FICI); format: cell-based; details: MRSA 43300 growth; for MIC ARAS: ARAS alone
S.aureus MRSA 33592 = experiment: Growth of MRSA 33592, cannabinoid alone and combined with antibiotic (MIC/FIC/FICI); format: cell-based; details: MRSA 33592 growth; for MIC ARAS: ARAS alone
MRSA strain 33592 = experiment: Colony spreading on soft agar, MRSA 33592; details: ARAS 16 μg/ml (sub-MIC)
Experimental: (§1) The swimming assay was performed on soft agar plates. 0.2% agar medium was prepared and autoclaved. The bacteria were exposed to the tested agents. 3 μl of overnight bacterial culture (O.D 595˜0.5) was inoculated at the centre of the agar plate. […] The plates were then incubated for 15 h.

[5] = test system: S.aureus MRSA 33592 biofilm; experiment: Biofilm formation of MRSA 33592, cannabinoid alone and combined with antibiotic (MBIC/FBIC/FBICI); format: cell-based; details: for MBIC ARAS: ARAS alone
[6] = test system: mixed C. albicans-S. mutans biofilm; experiment: Co-species C. albicans-S. mutans biofilm formation inhibition; format: cell-based
C. albicans = C. albicans growth (MIC); format: cell-based; details: Candida albicans; single C. albicans growth; highest tested dose 64 μg/ml; read-out: MIC, fungal growth
[7] = test system: fluconazole resistant C. albicans strain DSY735 biofilm; details: Table 2
MRSA strain CI = experiment: Colony spreading on soft agar, MRSA CI; details: ARAS 64 μg/ml (sub-MIC)
Experimental: as §1

S. mutans biofilm = S. mutans biofilm formation inhibition; format: cell-based; details: Streptococcus mutans; 8 μg/ml; read-out: inhibition of single S. mutans biofilm formation
S. mutans = S. mutans growth (MIC); format: cell-based; details: Streptococcus mutans; single S. mutans growth; read-out: MIC
C. albicans biofilm = C. albicans biofilm formation inhibition; format: cell-based; details: single C. albicans biofilm formation
MRSA strain 43300 = experiment: Colony spreading on soft agar, MRSA 43300; details: ARAS 32 μg/ml (sub-MIC)
Experimental: as §1

[8] = test system: S. aureus MRSA 24433 biofilm; experiment: Biofilm formation of MRSA 24433, cannabinoid alone and combined with antibiotic (MBIC/FBIC/FBICI); format: cell-based; details: Table 3B
[9] = MBIC of ARAS in combination with fluconazole

Structure (SMILES): CCCCC/C=C\C/C=C\C/C=C\C/C=C\CCCC(=O)N[C@@H](CO)C(=O)O [ARAS, arachidonoyl serine]
- MIC [1]: > 64 mg/L
- MIC ARAS (S. aureus MRSA 24433; ARAS alone): > 256 mg/L
- FIC ARAS (S. aureus MRSA 24433; MIC of ARAS in combination with methicillin): >64
- growth of fluconazole resistant fungal strains [2]: not affected
- MBIC ARAS ([3]; ARAS alone): 64 µg/mL
- FBIC ARAS [3, 9]: 32 µg/mL
- MBIC ARAS ([4]; Table 3C): 32
- MBIC ARAS ([4]; Table 5B): 32
- FBIC ARAS ([4]; MBIC of ARAS in combination with ampicillin, Table 5B): 8
- FBIC ARAS ([4]; MBIC of ARAS in combination with methicillin, Table 3C): 8
- MIC ARAS (S.aureus MRSA 43300; Table 3C): 64 mg/L
- MIC ARAS (S.aureus MRSA 43300; Table 5B): 64 mg/L
- FIC ARAS (S.aureus MRSA 43300; MIC of ARAS in combination with ampicillin, Table 5B): 16
- FIC ARAS (S.aureus MRSA 43300; MIC of ARAS in combination with methicillin, Table 3C): 16
- MIC ARAS (S.aureus MRSA 33592; Table 3A): 64 mg/L
- MIC ARAS (S.aureus MRSA 33592; Table 4): 32 mg/L
- MIC ARAS (S.aureus MRSA 33592; Table 5A): 32 mg/L
- FIC ARAS (S.aureus MRSA 33592; MIC of ARAS in combination with ampicillin, Table 5A): 8
- FIC ARAS (S.aureus MRSA 33592; MIC of ARAS in combination with gentamycin, Table 4): 4
- FIC ARAS (S.aureus MRSA 33592; MIC of ARAS in combination with methicillin, Table 3A): 16
- inhibition of colony spreading vs untreated control (MRSA strain 33592): 65% and 65 ± 3.4%
- MBIC ARAS ([5]; Table 3A): 32
- MBIC ARAS ([5]; Table 4): 32
- MBIC ARAS ([5]; Table 5A): 32
- FBIC ARAS ([5]; MBIC of ARAS in combination with ampicillin, Table 5A): 16
- FBIC ARAS ([5]; MBIC of ARAS in combination with gentamycin, Table 4): 4
- FBIC ARAS ([5]; MBIC of ARAS in combination with methicillin, Table 3A): 16
- MBIC50 [6]: 32 µg/mL
- MIC (C. albicans): > 64 mg/L
- MBIC ARAS ([7]; ARAS alone): 64 µg/mL
- FBIC ARAS [7, 9]: 32 µg/mL
- inhibition of colony spreading vs untreated control (MRSA strain CI): 64% and 64 ± 2.5%
- inhibition at 8 µg/mL (S. mutans biofilm): > 50%
- MIC (S. mutans): 64 mg/L (≈ 163 µM)
- MBIC50 (minimal biofilm inhibitory concentration 50, 50% of biofilm inhibition) (C. albicans biofilm): 16 µg/mL
- inhibition of colony spreading vs untreated control (MRSA strain 43300): 46% and 46 ± 2.8%
- MBIC ARAS ([8]; ARAS alone): 32
- FBIC ARAS ([8]; MBIC of ARAS in combination with methicillin): 16

Reference: patent publication US20210379010A1, “COMPOSITIONS COMPRISING CANNABINOIDS FOR USE IN THE TREATMENT OF BIOFILM AND CONDITIONS ASSOCIATED WITH MICROBIAL, FUNGAL, BACTERIAL INFECTIONS” (Yissum Research Development Company of The Hebrew …, priority 2018, published 2021)
